The text below walks through data of ChEMBL document CHEMBL1155464, “Potent tricyclic pyrazole tetrazole agonists of the nicotinic acid receptor (GPR109a)” (Bioorg Med Chem Lett, 2010).

The target in data set [1] is Hydroxycarboxylic acid receptor 3 (Homo sapiens) (UniProt P49019). Nature of the data set: Agonist activity at GPR109b. It counts as functional.
Data set [2] is described as follows: Antidyslipidemic activity in human adipocytes assessed as inhibition of isoproteranol-induced production of free fatty acids. The conditions noted are these: Adipocyte.
Data set [3] addresses Hydroxycarboxylic acid receptor 3 (Homo sapiens) (UniProt P49019). Nature of the data set: Agonist activity at GPR109b at 5 to 10 uM. It counts as functional.
Data set [4] relates to Mus musculus. Kind of data set: Induction of vasodilation in mouse assessed as laser doppler changes in ears at 100 mg/kg. The format is functional, organism-based. Details: dose 100 mg/kg.
Data set [5] is filed under the species Mus musculus. Kind of data set: Inhibition of prostaglandin-induced vasodilation in mouse. The format is functional, organism-based.
For data set [6], the species on record is Mus musculus. Nature of the data set: Inhibition of niacin-induced vasodilation in mouse. It counts as functional, organism-based.
Data set [7] in a line: Half life in mouse at 3 mg/kg, iv and 10 mg/kg, po. It counts as ADME, organism-based. The note with it: in vivo.
The nature of data set [8]: Plasma clearance in rat at 3 mg/kg, iv and 10 mg/kg, po. It counts as ADME, organism-based.
Data set [9] can be described thus: Half life in monkey at 3 mg/kg, iv and 10 mg/kg, po. It counts as ADME, organism-based, Macaca mulatta. The note with it: rhesus monkey, in vivo.
Data set [10] is described as follows: Volume of distribution at steady state in rat at 3 mg/kg, iv and 10 mg/kg, po. The note with it: in vivo, read-out: Vdss. The format is ADME, organism-based.
Data set [11] in a line: Cmax in dog at 3 mg/kg, iv and 10 mg/kg, po. The note with it: in vivo. It counts as ADME, organism-based, Canis lupus familiaris.
A short description of data set [12]: Plasma clearance in mouse at 3 mg/kg, iv and 10 mg/kg, po. It counts as ADME, organism-based.
Data set [13] can be described thus: Half life in rat at 3 mg/kg, iv and 10 mg/kg, po. The format is ADME, organism-based. The conditions noted are these: in vivo.
The nature of data set [14]: Oral bioavailability in mouse at 10 mg/kg. The format is ADME, organism-based. The conditions noted are these: in vivo.
Data set [15] is described as follows: Oral bioavailability in rat at 10 mg/kg. The format is ADME, organism-based. The conditions noted are these: in vivo.
Data set [16] is described as follows: Oral bioavailability in dog at 10 mg/kg. The note with it: in vivo. It counts as ADME, organism-based, Canis lupus familiaris.
Data set [17] relates to Mus musculus. Kind of data set: Antidyslipidemic activity in po dosed mouse assessed as reduction of plasma free fatty acids. The format is functional.
The nature of data set [18]: Plasma clearance in dog at 3 mg/kg, iv and 10 mg/kg, po. It counts as ADME, organism-based, Canis lupus familiaris.
Data set [19] can be described thus: Cmax in rat at 3 mg/kg, iv and 10 mg/kg, po. The note with it: in vivo. The format is ADME, organism-based.
Data set [20] can be described thus: Cmax in mouse at 3 mg/kg, iv and 10 mg/kg, po. The format is ADME, organism-based. The conditions noted are these: in vivo.
Data set [21] is described as follows: Volume of distribution at steady state in monkey at 3 mg/kg, iv and 10 mg/kg, po. The conditions noted are these: rhesus monkey, in vivo, read-out: Vdss. The format is ADME, organism-based, Macaca mulatta.
Data set [22] in a line: Volume of distribution at steady state in dog at 3 mg/kg, iv and 10 mg/kg, po. The conditions noted are these: in vivo, read-out: Vdss. The format is ADME, organism-based, Canis lupus familiaris.
Data set [23] can be described thus: Cmax in monkey at 3 mg/kg, iv and 10 mg/kg, po. The conditions noted are these: rhesus monkey, in vivo. It counts as ADME, organism-based, Macaca mulatta.
A short description of data set [24]: Volume of distribution at steady state in mouse at 3 mg/kg, iv and 10 mg/kg, po. The format is ADME, organism-based. The note with it: in vivo, read-out: Vdss.
Data set [25] is described as follows: Oral bioavailability in monkey at 10 mg/kg. It counts as ADME, organism-based, Macaca mulatta. The conditions noted are these: rhesus monkey, in vivo.
Data set [26] can be described thus: Plasma clearance in monkey at 3 mg/kg, iv and 10 mg/kg, po. The format is ADME, organism-based, Macaca mulatta. The note with it: rhesus monkey.
Data set [27] is described as follows: Half life in dog at 3 mg/kg, iv and 10 mg/kg, po. The format is ADME, organism-based, Canis lupus familiaris. The conditions noted are these: in vivo.

Activity calls are given as the source filed them.

Hydroxycarboxylic acid receptor 3 (Homo sapiens), sequence (P49019 whole entry): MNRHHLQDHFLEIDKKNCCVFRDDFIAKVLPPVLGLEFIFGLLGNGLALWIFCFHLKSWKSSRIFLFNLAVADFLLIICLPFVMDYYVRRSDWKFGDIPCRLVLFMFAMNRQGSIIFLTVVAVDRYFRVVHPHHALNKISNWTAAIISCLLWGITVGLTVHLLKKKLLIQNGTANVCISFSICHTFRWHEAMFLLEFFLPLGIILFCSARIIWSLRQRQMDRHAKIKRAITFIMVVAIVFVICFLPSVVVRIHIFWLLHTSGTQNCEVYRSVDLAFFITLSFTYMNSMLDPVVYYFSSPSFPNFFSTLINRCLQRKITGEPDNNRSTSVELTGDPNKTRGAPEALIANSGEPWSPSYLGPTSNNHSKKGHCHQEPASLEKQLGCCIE

Turning to `CC[C@@H]1[C@H]2Cc3c(-c4nnn[nH]4)n[nH]c3[C@@H]12`, the outcome in data set [1] was inactive.

For `CCCCC[C@@H]1[C@H]2Cc3c(-c4nnn[nH]4)n[nH]c3[C@@H]12`, the result in data set [1] was inactive.

One may read the IC50 as the concentration at which inhibition is half-maximal. As to `O=C(O)c1cccnc1` [NIACIN], the result in data set [1] was inactive. Moreover, the IC50 in [2] turned out to be 60 nM.

`CC(C)C[C@@H]1[C@H]2Cc3c(-c4nnn[nH]4)n[nH]c3[C@H]21`: the outcome in data set [1] was inactive. Moreover, the outcome in data set [3] was Active.

Consider `CC(C)C[C@H]1C2Cc3c(-c4nnn[nH]4)n[nH]c3[C@H]21` (stereo not given in full), for which, in [1], the outcome was inactive.

Turning to `C1c2c(-c3nnn[nH]3)n[nH]c2C2CC12` (racemic), the result in data set [1] was inactive.

On to `C[C@@H]1[C@H]2Cc3c(-c4nnn[nH]4)n[nH]c3[C@@H]12`, for which, in data set [1], the outcome was inactive.

For the compound `C1c2c(-c3nnn[nH]3)n[nH]c2[C@H]2C[C@@H]12` (stereo in doubt; (+)17a), the outcome in data set [4], in [5] and in data set [1] was inactive. Also, the outcome in data set [6] was Active.

Consider `CC1(C)[C@@H]2c3[nH]nc(-c4nnn[nH]4)c3C[C@@H]21`, for which the result in data set [1] was inactive.

`C=CC[C@@H]1[C@H]2Cc3c(-c4nnn[nH]4)n[nH]c3[C@@H]12`: the outcome in [1] was inactive.

As for `C=C[C@@H]1[C@H]2Cc3c(-c4nnn[nH]4)n[nH]c3[C@@H]12`, the outcome in data set [1] was inactive.

Regarding `COC[C@@H]1[C@H]2Cc3c(-c4nnn[nH]4)n[nH]c3[C@@H]12`, the result in data set [1] was inactive.

Consider `C=C[C@H]1[C@H]2Cc3c(-c4nnn[nH]4)n[nH]c3[C@@H]12`, for which the outcome in data set [1] was inactive.

In the case of `C1CCC2(C1)[C@@H]1c3[nH]nc(-c4nnn[nH]4)c3C[C@@H]12`, in data set [1], the outcome was inactive.

For `CCCC[C@@H]1[C@H]2Cc3c(-c4nnn[nH]4)n[nH]c3[C@@H]12`, the result in data set [1] was inactive. For the same compound, the outcome in [3] was Active.

For `CCC[C@@H]1[C@H]2Cc3c(-c4nnn[nH]4)n[nH]c3[C@@H]12`, the result in [1] was inactive. In [3], the result was Active.

On to `C1c2c(-c3nnn[nH]3)n[nH]c2[C@H]2C[C@@H]12` (stereo in doubt; (-)17a), for which, in data set [1], the result was inactive.

Turning to `C1CC1[C@@H]1[C@H]2Cc3c(-c4nnn[nH]4)n[nH]c3[C@H]21`, the result in data set [1] was inactive.

As for `C/C=C/[C@@H]1[C@H]2Cc3c(-c4nnn[nH]4)n[nH]c3[C@@H]12`, in [1], the outcome was inactive.

As for `CCCCC[C@H]1[C@H]2Cc3c(-c4nnn[nH]4)n[nH]c3[C@H]21`, the result in [1] was inactive.

What is called half-life is the time needed for the level to fall by half in the phase considered. By Cmax is commonly meant the maximum level reached in the sampled fluid or tissue. By bioavailability is commonly meant dose-corrected exposure relative to a reference, in per cent. As usually defined, the ED50 is the midpoint of the dose-response relation. On to `C1c2c(-c3nnn[nH]3)n[nH]c2[C@H]2C[C@@H]12` (stereo in doubt; (+)17a) [3-(1H-TETRAZOL-5-YL)-4,4A,5,5A-TETRAHYDRO-1H-CYCLOPROPA[4,5]CYCLOPENTA[1,2-C]PYRAZOLE (STRUCTURAL MIX)], for which the half-life in data set [7] was 2.4 h; in data set [9] it was 7.3 h; in [13], 1.9 h; in data set [27], 1.9 h. Besides, the clearance in data set [8] is 25.5 mL/min/kg; in data set [12] it was 61.6 mL/min/kg; in [18] it was 12.4 mL/min/kg; in [26], 13.9 mL/min/kg. Besides, the Vd in [10] turned out to be 0.34 L/kg; in [21], 0.96 L/kg; in [22], 0.53 L/kg; in data set [24] it was 3.4 L/kg. Further, the Cmax stood at 36.9 µM in data set [11], 4.9 µM in [19], 2 µM in [20] and 11.7 µM in data set [23]. The bioavailability in data set [14] was 97%; in [15] it was 37%; in data set [16] it was greater than 100%; in data set [25], greater than 100%. Besides, in data set [17], the ED50 turned out to be 0.52 mg/kg. The IC50 in data set [2] was found to be 90 nM.

As to `CC(C)CC[C@@H]1C2Cc3c(-c4nnn[nH]4)n[nH]c3[C@H]21` (stereo not given in full), the outcome in data set [1] was inactive.

Turning to `C[C@H]1[C@H]2Cc3c(-c4nnn[nH]4)n[nH]c3[C@@H]12`, in data set [1], the result was inactive.

In the case of `C1Cc2[nH]nc(-c3nn[nH]n3)c2C1`, the outcome in data set [1] was inactive. For the same compound, in data set [17], the ED50 came out at 3.1 mg/kg. Also, in data set [2], the IC50 worked out at 870 nM.

With `C=CC[C@H]1[C@H]2Cc3c(-c4nnn[nH]4)n[nH]c3[C@H]21`, the outcome in [1] was inactive.
